Laboratory results as given in US20060069132A1, “Azolecarboxamide herbicides” (priority 2004, published 2006).

Key:
[1] = test system: barnyardgrass; test: Test B pre-/postemergence herbicide test; assay type: in vivo, Echinochloa crus-galli; settings: 0 = no effect, 100 = complete control, preemergence
Outline: (§1)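 Plants compared with untreated controls 13–15 days post-treatment and given a visual 0–100 injury score. Applications: preemergence to seeds; postemergence at 1- to 4-leaf (2–18 cm); paddy species flooded, 2-leaf stage. Vehicle non-phytotoxic, surfactant included.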

[2] = test system: Surinam grass; test: Test B pre-/postemergence herbicide test; assay type: in vivo, Urochloa decumbens; settings: for Surinam Grass plant response rating: postemergence, scale 0 (no effect) to 100 (complete control)
Outline: (§2)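 Evaluation is visual, comparing treated with control plants on a scale where 0 means no effect and 100 means full control. Treatments were preemergence, or postemergence on seedlings 2–18 cm tall, and held 13–15 days in the greenhouse.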

[3] = test system: cocklebur; test: Test B pre-/postemergence herbicide test; assay type: in vivo, Xanthium strumarium; settings: for Cocklebur plant response rating: postemergence, scale 0 (no effect) to 100 (complete control)
Outline: as §1

[4] = test system: corn; test: Test B pre-/postemergence herbicide test; assay type: in vivo, Zea mays; settings: for Corn plant response rating: postemergence, scale 0 (no effect) to 100 (complete control)
Outline: as §2

[5] = test system: large crabgrass; test: Test B pre-/postemergence herbicide test; assay type: in vivo, Digitaria sanguinalis; settings: for Crabgrass, Large plant response rating: postemergence, scale 0 (no effect) to 100 (complete control)
Outline: as §2

[6] = test system: giant foxtail; test: Test B pre-/postemergence herbicide test; assay type: in vivo, Setaria faberi; settings: for Foxtail, Giant plant response rating: postemergence, scale 0 (no effect) to 100 (complete control)
Outline: as §2

[7] = test system: lambsquarters; test: Test B pre-/postemergence herbicide test; assay type: in vivo, Chenopodium album; settings: for Lambsquarters plant response rating: postemergence, scale 0 (no effect) to 100 (complete control)
Outline: as §2

[8] = test system: morningglory; test: Test B pre-/postemergence herbicide test; assay type: in vivo, Ipomoea coccinea; settings: for Morningglory plant response rating: postemergence, scale 0 (no effect) to 100 (complete control)
Outline: as §1

[9] = test system: pigweed; test: Test B pre-/postemergence herbicide test; assay type: in vivo, Amaranthus retroflexus
Outline: as §2

[10] = test system: rice; test: Test B pre-/postemergence herbicide test; assay type: in vivo, Oryza sativa; settings: 0 = no effect, 100 = complete control, preemergence
Outline: as §1

[11] = test system: velvetleaf; test: Test B pre-/postemergence herbicide test; assay type: in vivo, Abutilon theophrasti; settings: for Velvetleaf plant response rating: postemergence, scale 0 (no effect) to 100 (complete control)
Outline: as §2

[12] = test system: blackgrass; test: Test B postemergence herbicide test; assay type: in vivo, Alopecurus myosuroides; settings: postemergence, visual rating, scale 0 (no effect) to 100 (complete control)
Outline: (§3)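 Formulated test chemicals went onto postemergence plants measuring 2 to 18 cm, at one to four leaves. For the paddy assay, species had reached two leaves. Scoring took place 13–15 days later by eye, relative to untreated plants, using 0 for no effect up to 100 for full control.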

[13] = test system: wheat; test: Test B postemergence herbicide test; assay type: in vivo, Triticum aestivum; set-up: key to Wheat plant response rating: 0 = no effect, 100 = complete control; settings: postemergence, visual rating, scale 0 (no effect) to 100 (complete control)
Outline: (§4)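 Treated at 2-leaf (paddy) or 1–4-leaf, 2–18 cm (postemergence); greenhouse 13–15 d; visual score vs control, 0 none to 100 complete control; dash = not tested.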

[14] = test system: wild oat; test: Test B postemergence herbicide test; assay type: in vivo, Avena fatua; settings: postemergence, visual rating, scale 0 (no effect) to 100 (complete control)
Outline: as §4

[15] = test system: rice; test: Test B flooded paddy test; assay type: in vivo, Oryza sativa; settings: 1000 g ai/ha, visual rating, scale 0 to 100 (0 no effect, 100 complete control), 13 to 15 days
Outline: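 Each value is a visual 0–100 response rating taken against controls 13 to 15 days after treatment in the greenhouse. Plants received formulated chemical postemergence at the 1- to 4-leaf stage or, in flooded paddy, at the 2-leaf stage.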

[16] = test system: small flower umbrella sedge; test: Test B flooded paddy test; assay type: in vivo, Cyperus difformis; settings: 1000 g ai/ha, visual rating, scale 0 to 100 (0 no effect, 100 complete control), 13 to 15 days
Outline: as §3

[17] = test system: ducksalad; test: Test B flooded paddy test; assay type: in vivo, Heteranthera limosa; settings: 1000 g ai/ha, visual rating, scale 0 to 100 (0 no effect, 100 complete control), 13 to 15 days
Outline: as §3

[18] = test system: barnyardgrass; test: Test B flooded paddy test; assay type: in vivo, Echinochloa crus-galli; settings: 1000 g ai/ha, visual rating, scale 0 to 100 (0 no effect, 100 complete control), 13 to 15 days
Outline: as §3

[19] = test system: rice; test: Test C flooded paddy test; assay type: in vivo, Oryza sativa
Outline: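 Injury scored visually against controls on a 0 (no effect) to 100 (complete control) scale, 12 to 14 days after treatment in greenhouse. Flooded paddy plants treated at 2-leaf stage; postemergence plants at 1- to 4-leaf stage, 2 to 18 cm tall.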

[20] = test system: smallflower umbrella sedge; test: Test C flooded paddy test; assay type: in vivo, Cyperus difformis
[21] = test system: ducksalad; test: Test C flooded paddy test; assay type: in vivo, Heteranthera limosa
[22] = test system: barnyardgrass; test: Test C flooded paddy test; assay type: in vivo, Echinochloa crus-galli
Outline: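 After a postemergence application at 1 to 4 leaves (plants 2–18 cm high), or at 2 leaves for barnyardgrass in flooded paddy, plants stayed in the greenhouse for 12 to 14 days. Damage was then judged visually relative to control plants, with 100 indicating complete control.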

[23] = 125 g ai/ha, 0 = no effect, 100 = complete control, preemergence
[24] = 500 g ai/ha, visual rating, 0 = no effect, 100 = complete control, preemergence
[25] = 62 g ai/ha, scale 0 to 100 (0 no effect, 100 complete control)
[26] = 125 g ai/ha, scale 0 to 100 (0 no effect, 100 complete control)
[27] = 250 g ai/ha, scale of 0 to 100, 0 is no effect, 100 is complete control
[28] = 500 g ai/ha, visual rating after 12 to 14 days, scale 0 to 100 (0 no effect, 100 complete control)

CCN(C)C(=O)c1cccc(NC(=O)c2sc(C(C)(C)C)nc2C)c1 [Compound 227]
Barnyardgrass plant response rating (0 to 100 scale) ([1]; 125 g ai/ha): 0 | Plant response rating, Barnyardgrass ([1]; 500 g ai/ha, visual rating): 60 | Surinam Grass plant response rating (0 to 100 scale) [2, 23]: 30 | Plant response rating, Surinam Grass [2, 24]: 70 | Surinam Grass plant response rating ([2]; 125 g ai/ha, visual rating): 10 | Surinam Grass plant response rating ([2]; 500 g ai/ha, visual rating): 30 | Cocklebur plant response rating (0 to 100 scale) [3, 23]: 0 | Plant response rating, Cocklebur [3, 24]: 0 | Cocklebur plant response rating ([3]; 125 g ai/ha, visual rating): 20 | Cocklebur plant response rating ([3]; 500 g ai/ha, visual rating): 30 | Corn plant response rating (0 to 100 scale) [4, 23]: 0 | Plant response rating, Corn [4, 24]: 50 | Corn plant response rating ([4]; 125 g ai/ha, visual rating): 30 | Corn plant response rating ([4]; 500 g ai/ha, visual rating): 40 | Crabgrass, Large plant response rating (0 to 100 scale) [5, 23]: 40 | Plant response rating, Crabgrass, Large [5, 24]: 100 | Crabgrass, Large plant response rating ([5]; 125 g ai/ha, visual rating): 30 | Crabgrass, Large plant response rating ([5]; 500 g ai/ha, visual rating): 30 | Foxtail, Giant plant response rating (0 to 100 scale) [6, 23]: 10 | Plant response rating, Foxtail, Giant [6, 24]: 70 | Foxtail, Giant plant response rating ([6]; 125 g ai/ha, visual rating): 10 | Foxtail, Giant plant response rating ([6]; 500 g ai/ha, visual rating): 60 | Lambsquarters plant response rating (0 to 100 scale) [7, 23]: 0 | Plant response rating, Lambsquarters [7, 24]: 90 | Lambsquarters plant response rating ([7]; 125 g ai/ha, visual rating): 50 | Lambsquarters plant response rating ([7]; 500 g ai/ha, visual rating): 70 | Morningglory plant response rating (0 to 100 scale) [8, 23]: 0 | Plant response rating, Morningglory [8, 24]: 20 | Morningglory plant response rating ([8]; 125 g ai/ha, visual rating): 50 | Morningglory plant response rating ([8]; 500 g ai/ha, visual rating): 60 | Pigweed plant response rating (0 to 100 scale) [9, 23]: 0 | Plant response rating, Pigweed [9, 24]: 100 | Pigweed plant response rating ([9]; postemergence, 125 g ai/ha, visual rating, scale 0 (no effect) to 100 (complete control)): 20 | Rice plant response rating (0 to 100 scale) ([10]; 125 g ai/ha): 10 | Plant response rating, Rice ([10]; 500 g ai/ha, visual rating): 70 | Velvetleaf plant response rating (0 to 100 scale) [11, 23]: 30 | Plant response rating, Velvetleaf [11, 24]: 100 | Velvetleaf plant response rating ([11]; 125 g ai/ha, visual rating): 20 | Velvetleaf plant response rating ([11]; 500 g ai/ha, visual rating): 70 | Blackgrass plant response rating ([12]; 125 g ai/ha): 20 | Blackgrass plant response rating ([12]; 500 g ai/ha): 30 | Wheat plant response rating ([13]; 125 g ai/ha): 0 | Wheat plant response rating ([13]; 500 g ai/ha): 10 | Oat, Wild plant response rating ([14]; 125 g ai/ha): 0 | Oat, Wild plant response rating ([14]; 500 g ai/ha): 0 | Rice plant response rating [15]: 70 | Sedge, Umbrella plant response rating [16]: 50 | Ducksalad plant response rating [17]: 80 | Barnyardgrass plant response rating [18]: 70 | Rice plant response rating [19, 25]: 0 | Rice plant response rating [19, 26]: 0 | Rice plant response rating [19, 27]: 25 | Plant response rating, Rice [19, 28]: 55 | Sedge, Umbrella plant response rating [20, 25]: 0 | Sedge, Umbrella plant response rating [20, 26]: 0 | Sedge, Umbrella plant response rating [20, 27]: 0 | Plant response rating, Sedge, Umbrella [20, 28]: 15 | Ducksalad plant response rating [21, 25]: 0 | Ducksalad plant response rating [21, 26]: 0 | Ducksalad plant response rating [21, 27]: 0 | Plant response rating, Ducksalad [21, 28]: 55 | Barnyardgrass plant response rating [22, 25]: 0 | Barnyardgrass plant response rating [22, 26]: 0 | Barnyardgrass plant response rating [22, 27]: 0 | Plant response rating, Barnyardgrass [22, 28]: 0
